Assay results published in paper PMC8159111 (Pathogens, 2021).
Like-named read-outs stand apart in the source and are kept apart here.

Columns and labels:
[1] = Cytotoxicity (CC50) determination, crystal violet assay; type: cell-based; details: African green monkey, Vero E6 cells, Table 4 prints no unit, Figure 4 prints μM, read-out: CC50 (half-maximal cytotoxic concentration)
Experimental: To assess the half maximal cytotoxic concentration (CC50), stock solutions of the test compounds were prepared in 10% DMSO in ddH2O and diluted further to the working solutions with DMEM. The cytotoxic activity of the extracts was tested in VERO-E6 cells by using crystal violet assay as previously described with minor modifications. Briefly, the cells were seeded in 96-well plates (100 µL/well at a density of 3 × 10^5 cells/mL) and incubated for 24 h at 37 °C in a humidified 5% CO2 incubator. After 24 h, cells were treated with various concentrations of the tested compounds in triplicates. Seventy two hours later, the supernatant was discarded, and cell monolayers were fixed with 10% formaldehyde for 1 h at room temperature (RT). The fixed monolayers were then dried and stained with 50 µL of 0.1% crystal violet for 20 min on a bench rocker at RT. The monolayers were then washed, dried and the crystal violet dye in each well was then dissolved with 200 µL of methanol for 20 min on a bench rocker at RT. The absorbance of crystal violet solutions was measured at λmax 570 nm as a reference wavelength using a multi-well plate reader.

[2] = test system: SARS-CoV-2 "NRC-03-nhCoV" virus; assay: Inhibitory concentration 50 (IC50) determination, reduction of virus-induced cytopathic effect in Vero-E6 cells; type: cell-based; details: for Selectivity Index (CC50/IC50): CC50 on Vero E6 / IC50 against NRC-03-nhCoV; for IC50: Severe acute respiratory syndrome coronavirus 2, Vero C1008, 72 h, unit not given in Table 4 and Figure 6, Figure 4 and text print μM
Experimental: The IC50 values for the tested compounds were determined as previously described, with minor modifications. Briefly, in 96-well tissue culture plates, 2.4 × 10^4 Vero-E6 cells were distributed in each well and incubated overnight at a humidified 37°C incubator under 5% CO2 condition. The cell monolayers were then washed once with 1× PBS. An aliquot of the SARS-CoV-2 “NRC-03-nhCoV” virus containing 100 TCID50 was incubated with serial diluted compounds and kept at 37 °C for 1 h. The Vero-E6 cells were treated with virus/compound mix and co-incubated at 37 °C in a total volume of 200 µL per well. Untreated cells infected with virus represented the virus control; however, cells that were not treated and not infected were the cell control. Following incubation at 37 °C in 5% CO2 incubator for 72 h, the cells were fixed with 100 μL of 10% paraformaldehyde for 20 min and stained with 0.5% crystal violet in distilled water for 15 min at RT. The crystal violet dye was then dissolved using 100 μL of absolute methanol per well and the optical density of the color was measured at 570 nm using the Anthos Zenyth 200 rt plate reader (Anthos Labtec Instruments, Heerhugowaard, the Netherlands).

[3] = against NRC-03-nhCoV in Vero E6, 72 h, CPE reduction, crystal violet, read-out: IC50 (half-maximal inhibitory concentration)

| SMILES | CC50 at 72 h [1] [µM] | Selectivity Index (CC50/IC50) [2] | IC50 [2, 3] [µM] | IC50 ([2]; read-out: IC50 (half-maximal inhibitory concentration), against NRC-03-nhCoV in Vero E6, 72 h, CPE reduction, crystal violet) [µM] |
| --- | --- | --- | --- | --- |
| CC1(C)CC[C@]2(C(=O)O)CC[C@]3(C)C(=CC[C@@H]4[C@@]5(C)CC[C@H](O)C(C)(C)[C@@H]5CC[C@]43C)[C@@H]2C1 [Compound 1, Oleanolic acid] | 190 | 0.39 | 476 |  |
| CC1(C)CC[C@]2(C(=O)O)CC[C@]3(C)C(=CC[C@@H]4[C@@]5(C)C[C@@H](O)[C@H](O)C(C)(C)[C@@H]5CC[C@]43C)[C@@H]2C1 [Compound 2, Maslinic acid] | 97.3 | 0.97 | 99.9 |  |
| C#CCOC(=O)[C@]12CCC(C)(C)CC1C1=CCC3[C@@]4(C)CC[C@H](O)C(C)(C)C4CC[C@@]3(C)[C@]1(C)CC2 (stereo partly drawn) [Compound 3, Propargyl-(3β)-3-hydroxyolean-12-en-28-oate] | 97.4 | 2.32 | 42 |  |
| C#CCOC(=O)[C@]12CCC(C)(C)CC1C1=CCC3[C@@]4(C)C[C@@H](O)[C@H](O)C(C)(C)C4CC[C@@]3(C)[C@]1(C)CC2 (stereo partly drawn) [Compound 4, Propargyl-(2α,3β)-2,3-dihydroxyolean-12-en-28-oate] | 157 | 0.67 | 236 |  |
| C#CCOC(=O)C12CCC(C)(C)CC1C1=CCC3C4(C)CC(OCC#C)C(O)C(C)(C)C4CCC3(C)C1(C)CC2 (stereo not drawn) [Compound 5, Propargyl-(2α)-2-(propargyloxy)-(3β)-3-hydroxy-olean-12-en-28-oate] | 90.6 | 1.06 | 85.2 |  |
| C#CCOC(=O)C12CCC(C)(C)CC1C1=CCC3C4(C)CC(O)C(OCC#C)C(C)(C)C4CCC3(C)C1(C)CC2 (stereo not drawn) [Compound 6, Propargyl-(3α)-3-(propargyloxy)-(2β)-2-hydroxy-olean-12-en-28-oate] | 209 | 1.55 | 135 |  |
| C#CCOC(=O)C12CCC(C)(C)CC1C1=CCC3C4(C)CC(OCC#C)C(OCC#C)C(C)(C)C4CCC3(C)C1(C)CC2 (stereo not drawn) [Compound 7, Propargyl-(2α,3β)-2,3-bis(propargyloxy)-olean-12-en-28-oate] | 97.4 | 0.90 | 108 |  |
| Cc1cccc(-n2nncc2COC(=O)C23CCC(C)(C)CC2C2=CCC4C5(C)CCC(O)C(C)(C)C5CCC4(C)C2(C)CC3)c1 (stereo not drawn) [Compound 8, (1-(3-methylphenyl)-1H-1,2,3-triazol-5-yl)methyl-(3β)-3-hydroxyolean-12-en-28-oate] | 170 | 0.98 | 174 |  |
| Cc1cccc(-n2cc(COC(=O)C34CCC(C)(C)CC3C3=CCC5C6(C)CCC(O)C(C)(C)C6CCC5(C)C3(C)CC4)nn2)c1 (stereo not drawn) [Compound 10, (1-(3-methylphenyl)-1H-1,2,3-triazol-4-yl)methyl-(3β)-3-hydroxyolean-12-en-28-oate] | 277 | 3.68 | 75.3 |  |
| CC1(C)CCC2(C(=O)OCc3cn(-c4ccccc4)nn3)CCC3(C)C(=CCC4C5(C)CC(O)C(O)C(C)(C)C5CCC43C)C2C1 (stereo not drawn) [Compound 11, (1-Phenyl-1H-1,2,3-triazol-4-yl)methyl-(2α,3β)-2,3-dihydroxyolean-12-en-28-oate] | 218 | 1.62 | 135 |  |
| CC1(C)CC[C@]2(C(=O)OCc3cn(-c4ccc(Cl)cc4)nn3)CC[C@]3(C)C(=CCC4[C@@]5(C)C[C@@H](OCc6cn(-c7ccc(Cl)cc7)nn6)[C@H](O)C(C)(C)C5CC[C@]43C)C2C1 (stereo partly drawn) [Compound 12, (1-(4-Chlorophenyl)-1H-1,2,3-triazol-4-yl)methyl-(2α,3β)-2-((1-(4-chlorophenyl)-1H-1,2,3-triazol-4-yl)methoxy)-3-hydroxyolean-12-en-28-oate] | 514 | 4.42 |  |  |
| COc1ccc(-n2cc(COC(=O)[C@]34CCC(C)(C)CC3C3=CCC5[C@@]6(C)C[C@@H](O)[C@H](OCc7cn(-c8ccc(OC)cc8)nn7)C(C)(C)C6CC[C@@]5(C)[C@]3(C)CC4)nn2)cc1 (stereo partly drawn) [Compound 13, (1-(4-Methoxyphenyl)-1H-1,2,3-triazol-4-yl)methyl-(2α,3β)-2-hydroxy-3-((1-(4-methoxyphenyl)-1H-1,2,3-triazol-4-yl)methoxy)-olean-12-en-28-oate] | 356 | 2.24 |  |  |
| COc1ccc(-n2cc(COC(=O)[C@]34CCC(C)(C)CC3C3=CCC5[C@@]6(C)C[C@@H](OCc7cn(-c8ccc(OC)cc8)nn7)[C@H](OCc7cn(-c8ccc(OC)cc8)nn7)C(C)(C)C6CC[C@@]5(C)[C@]3(C)CC4)nn2)cc1 (stereo partly drawn) [Compound 14, (1-(4-Methoxyphenyl)-1H-1,2,3-triazol-4-yl)methyl-(2α,3β)-2,3-bis((1-(4-methoxyphenyl)-1H-1,2,3-triazol-4-yl)methoxy)-olean-12-en-28-oate] | 405 | 2.96 |  |  |
| COc1ccc(-c2cc(COC(=O)C34CCC(C)(C)CC3C3=CCC5C6(C)CCC(O)C(C)(C)C6CCC5(C)C3(C)CC4)on2)cc1 (stereo not drawn) [Compound 15, (3-(4-methoxyphenyl)isoxazol-5-yl) methyl-(3β)-3-hydroxyolean-12-en-28-oate] |  |  | 523 |  |
| COc1ccc(-c2cc(COC(=O)C34CCC(C)(C)CC3C3=CCC5C6(C)CC(O)C(O)C(C)(C)C6CCC5(C)C3(C)CC4)on2)cc1 (stereo not drawn) [Compound 16, (3-(4-methoxyphenyl)isoxazol-5-yl) methyl-(2α,3β)-2,3-dihydroxyolean-12-en-28-oate] | 324 | 1.48 |  | 219 |
